Series [1] addresses Serine/threonine-protein kinase PknG (Mycobacterium tuberculosis) (UniProt P9WI73). Description: Inhibition of Mycobacterium tuberculosis PknG.
The target in series [2] is T1, Serine/threonine-protein kinase PknF (Mycobacterium tuberculosis) (UniProt P9WI75).
T1 sequence (whole entry): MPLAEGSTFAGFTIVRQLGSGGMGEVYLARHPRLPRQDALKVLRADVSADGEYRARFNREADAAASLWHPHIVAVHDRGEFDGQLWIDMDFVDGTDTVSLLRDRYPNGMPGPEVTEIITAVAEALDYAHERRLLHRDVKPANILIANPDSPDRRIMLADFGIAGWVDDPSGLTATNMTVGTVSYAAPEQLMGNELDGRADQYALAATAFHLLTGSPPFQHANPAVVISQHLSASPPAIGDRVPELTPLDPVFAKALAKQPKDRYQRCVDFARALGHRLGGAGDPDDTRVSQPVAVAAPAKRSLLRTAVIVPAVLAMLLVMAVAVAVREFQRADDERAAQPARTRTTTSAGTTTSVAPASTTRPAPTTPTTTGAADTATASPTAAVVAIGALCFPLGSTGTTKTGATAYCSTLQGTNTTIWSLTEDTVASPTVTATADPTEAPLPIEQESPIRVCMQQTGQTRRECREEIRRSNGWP
In words: Inhibition of Mycobacterium tuberculosis PknF.

A short description of series [3]: Protein binding in plasma. The conditions noted are these: read-out: PPB. It is filed as ADME, cell-free.

Activity calls are given as the source filed them. No cut-off for these calls is given here. A value given as a limit tells only on which side of the number the result lay.

Sequence of Serine/threonine-protein kinase PknG (Mycobacterium tuberculosis) (P9WI73 whole entry): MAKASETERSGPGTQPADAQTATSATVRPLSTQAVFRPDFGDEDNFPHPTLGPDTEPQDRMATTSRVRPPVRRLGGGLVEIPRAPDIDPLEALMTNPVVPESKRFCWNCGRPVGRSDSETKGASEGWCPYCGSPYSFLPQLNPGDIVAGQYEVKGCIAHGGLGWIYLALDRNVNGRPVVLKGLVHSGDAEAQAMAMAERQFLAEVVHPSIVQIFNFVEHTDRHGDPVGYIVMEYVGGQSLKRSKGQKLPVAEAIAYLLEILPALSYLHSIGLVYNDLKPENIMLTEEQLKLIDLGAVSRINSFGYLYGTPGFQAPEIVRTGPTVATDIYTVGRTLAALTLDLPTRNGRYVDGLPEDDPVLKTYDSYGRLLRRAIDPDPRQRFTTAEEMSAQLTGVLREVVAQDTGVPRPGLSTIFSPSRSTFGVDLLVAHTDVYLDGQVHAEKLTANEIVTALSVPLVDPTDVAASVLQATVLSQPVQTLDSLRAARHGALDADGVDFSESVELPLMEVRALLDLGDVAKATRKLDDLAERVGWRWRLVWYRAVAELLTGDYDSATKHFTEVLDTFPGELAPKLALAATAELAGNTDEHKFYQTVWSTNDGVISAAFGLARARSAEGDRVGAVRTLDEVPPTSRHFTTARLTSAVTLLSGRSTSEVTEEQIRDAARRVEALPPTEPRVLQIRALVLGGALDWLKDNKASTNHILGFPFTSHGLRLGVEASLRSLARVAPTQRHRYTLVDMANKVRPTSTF

Take `c1ccc(CNc2nccc(Nc3cc(C4CC4)[nH]n3)n2)cc1`: the inhibition entry in series [1] and in series [2] was “Active” throughout.

In the case of `CN(C)CCNc1cc(Nc2cc(C3CC3)[nH]n2)nc(-c2ccccc2)n1`, the inhibition result in series [1] and in series [2] was “Active” throughout.

For the molecule `CN(C)[C@@H]1CCN(c2cc(Nc3cc(C4CC4)[nH]n3)nc(-c3ccccc3)n2)C1`, the inhibition result in series [1] and in series [2] was “Active” in each case.

With `N#Cc1cccc(-c2nccc(Nc3cc(C4CC4)[nH]n3)n2)c1`, the inhibition result in series [1] and in series [2] was “Active” throughout.

Consider `c1ccc(-c2nc(Nc3cc(C4CC4)[nH]n3)c3ccccc3n2)cc1`, for which the inhibition result in series [1] and in series [2] was “Active” each time.

Turning to `CN(C)[C@@H]1CCN(c2cc(Nc3cc(C4CC4)[nH]n3)nc(-c3cccc(C#N)c3)n2)C1`, the inhibition entry in series [1] and in series [2] was “Active” in each case.

For `c1cc(Nc2cc(C3CC3)[nH]n2)nc(NCC2CC2)n1`, the inhibition entry in series [1] and in series [2] was “Active” in each case.

For the molecule `CN(C)[C@@H]1CCN(c2cc(Nc3cc(C(F)(F)F)ccn3)nc(-c3cccc(C#N)c3)n2)C1`, the inhibition entry in series [1] and in series [2] was “Active” throughout.

In the case of `c1ccc(-c2nc(Nc3cc(C4CC4)n[nH]3)c3ccccc3n2)cc1`, the fraction unbound in series [3] is less than 0.01.

On to `c1cc(Nc2cc(C3CC3)[nH]n2)nc(NC2CCCC2)n1`, for which the inhibition entry in series [1] and in series [2] was “Active” in each case.

Take `CN(C)CCNc1cc(Nc2cc(C3CC3)[nH]n2)nc(-c2cccc(C#N)c2)n1`: the inhibition result in series [1] and in series [2] was “Active” each time.

In the case of `c1ccc2c(Nc3cc(C4CC4)n[nH]3)nc(-c3ccncc3)nc2c1`, in series [3], the fraction unbound is less than 0.01.

Regarding `CC(C)CCNc1nccc(Nc2cc(C3CC3)[nH]n2)n1`, the inhibition entry in series [1] and in series [2] was “Active” each time.

Consider `CN1CCN(c2cc(Nc3cc(C4CC4)[nH]n3)nc(-c3ccccc3)n2)CC1`, for which the inhibition entry in series [1] and in series [2] was “Active” in each case.

Turning to `CN1CCC(Nc2cc(Nc3cc(C4CC4)[nH]n3)nc(-c3ccccc3)n2)CC1`, the inhibition result in series [1] and in series [2] was “Active” each time.

For the molecule `c1ccc2c(Nc3cc(C4CC4)n[nH]3)nc(NCC3CC3)nc2c1`, in series [3], the fraction unbound was less than 0.01.

With `CS(=O)(=O)NCc1ccc(-c2nccc(Nc3cc(C4CC4)[nH]n3)n2)cc1`, the inhibition result in series [1] and in series [2] was “Active” throughout.

Regarding `NC(=O)c1cccc(-c2nccc(Nc3cc(C4CC4)[nH]n3)n2)c1`, the inhibition entry in series [1] and in series [2] was “Active” throughout.

Turning to `CN1CCC(CNc2cc(Nc3cc(C4CC4)[nH]n3)nc(-c3cccc(S(C)(=O)=O)c3)n2)CC1`, the inhibition entry in series [1] and in series [2] was “Active” each time.

On to `c1ccc(-c2nc(Nc3cc(C4CC4)[nH]n3)cc(OCCN3CCCC3)n2)cc1`, for which the inhibition entry in series [1] and in series [2] was “Active” each time.

Consider `CS(=O)(=O)c1cccc(-c2nccc(Nc3cc(C4CC4)[nH]n3)n2)c1`, for which the inhibition entry in series [1] and in series [2] was “Active” throughout.

Regarding `Fc1ccc(-c2nc(Nc3cc(C4CC4)n[nH]3)c3ccccc3n2)cc1`, in series [3], the fraction unbound was less than 0.01.

Take `c1ccc2c(Nc3cc(C4CC4)[nH]n3)nc(NCC3CC3)nc2c1`: the inhibition entry in series [1] and in series [2] was “Active” throughout.

With `Fc1ccc(-c2nccc(Nc3cc(C4CC4)[nH]n3)n2)cc1`, the inhibition entry in series [1] and in series [2] was “Active” throughout.

`Cc1cc(Nc2nc(-c3ccncc3)nc3ccccc23)n[nH]1`: the inhibition entry in series [1] and in series [2] was “Active” each time.

Turning to `CS(=O)(=O)Nc1cccc(-c2nccc(Nc3cc(C4CC4)[nH]n3)n2)c1`, the inhibition result in series [1] and in series [2] was “Active” each time.

Take `Clc1ccccc1CCNc1nccc(Nc2cc(C3CC3)[nH]n2)n1`: the inhibition entry in series [1] and in series [2] was “Active” in each case.

Consider `c1ccc2c(Nc3cc(C4CC4)[nH]n3)nc(NC3CCCCC3)nc2c1`, for which the inhibition result in series [1] and in series [2] was “Active” throughout. Also, in series [3], the fraction unbound was less than 0.01.

Turning to `Fc1ccc(-c2nc(Nc3cc(C4CC4)[nH]n3)c3ccccc3n2)cc1`, the inhibition entry in series [1] and in series [2] was “Active” throughout.

As for `Fc1cccc(CCNc2nccc(Nc3cc(C4CC4)[nH]n3)n2)c1`, the inhibition entry in series [1] and in series [2] was “Active” each time.

With `CN1CCC(CNc2cc(Nc3cc(C4CC4)[nH]n3)nc(-c3ccccc3)n2)CC1`, the inhibition entry in series [1] and in series [2] was “Active” in each case.

As for `Cc1cc(Nc2nc(-c3ccc(F)cc3)nc3ccccc23)n[nH]1`, the inhibition entry in series [1] and in series [2] was “Active” in each case. Also, the fraction unbound in series [3] is less than 0.01.

For `c1cncc(-c2nccc(Nc3cc(C4CC4)[nH]n3)n2)c1`, the inhibition result in series [1] and in series [2] was “Active” each time.

In the case of `Fc1ccc(-c2nc(Nc3cc[nH]n3)c3ccccc3n2)cc1`, the inhibition entry in series [1] and in series [2] was “Active” in each case. The fraction unbound in series [3] is less than 0.01.

`CN(C)[C@@H]1CCN(c2cc(Nc3cc(Cl)ccn3)nc(-c3ccccc3)n2)C1`: the inhibition result in series [1] and in series [2] was “Active” in each case.

Consider `COc1ccnc(Nc2cc(N3CC[C@@H](N(C)C)C3)nc(-c3ccccc3)n2)c1`, for which the inhibition entry in series [1] and in series [2] was “Active” in each case.

For `CN1CCC(CNc2cc(Nc3cc(C4CC4)[nH]n3)nc(-c3cccc(C#N)c3)n2)CC1`, the inhibition entry in series [1] and in series [2] was “Active” each time.

Turning to `CN(C)[C@@H]1CCN(c2cc(Nc3ccccn3)nc(-c3cccc(C#N)c3)n2)C1`, the inhibition entry in series [1] and in series [2] was “Active” throughout.

Regarding `c1ccc2c(Nc3cc(C4CC4)[nH]n3)nc(-c3ccncc3)nc2c1`, the inhibition entry in series [1] and in series [2] was “Active” each time.

With `c1cc(Nc2cc(C3CC3)[nH]n2)nc(NC2CCCCC2)n1`, the inhibition entry in series [1] and in series [2] was “Active” in each case.

The record behind these values is ChEMBL document CHEMBL2016574, “Substituted aminopyrimidine protein kinase B (PknB) inhibitors show activity against Mycobacterium tuberculosis” (Bioorg Med Chem Lett, 2012).
